The target of the first assay is T1, CREBBP (1084-1701) (Homo sapiens, UniProt Q92793).
T1 construct: measured in the following biochemical assay using CREBBP (1084-1701); purchased
T1 sequence (Q92793 1084-1701): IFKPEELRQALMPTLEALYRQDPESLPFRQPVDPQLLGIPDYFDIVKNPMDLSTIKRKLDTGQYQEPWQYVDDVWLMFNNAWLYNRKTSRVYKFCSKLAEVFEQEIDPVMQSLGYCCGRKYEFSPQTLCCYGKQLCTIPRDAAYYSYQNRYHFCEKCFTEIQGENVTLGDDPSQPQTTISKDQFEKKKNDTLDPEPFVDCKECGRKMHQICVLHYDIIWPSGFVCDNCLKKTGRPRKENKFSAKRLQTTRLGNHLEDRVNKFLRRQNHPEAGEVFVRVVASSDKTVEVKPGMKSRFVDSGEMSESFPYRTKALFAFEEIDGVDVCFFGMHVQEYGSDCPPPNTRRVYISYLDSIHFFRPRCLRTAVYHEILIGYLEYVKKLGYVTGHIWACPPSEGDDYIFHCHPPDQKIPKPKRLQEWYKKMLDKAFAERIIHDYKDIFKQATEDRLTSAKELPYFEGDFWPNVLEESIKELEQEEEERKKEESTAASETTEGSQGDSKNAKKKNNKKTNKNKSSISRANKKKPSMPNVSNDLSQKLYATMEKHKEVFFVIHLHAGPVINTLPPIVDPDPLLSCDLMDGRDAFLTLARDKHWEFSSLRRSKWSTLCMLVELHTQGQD
Nature of the assay: Biochemical assay for CREBBP (1084-1701), SAMDI. The settings on record: SAMDI, read-out: CREBBP Biochemistry IC50. An excerpt:
The following example describes materials and methods relating to a biochemical assay for CREBBP (1084-1701). IC50 values (micromolar (μM)) are summarized in Table 1, Table 2, and Table 3 under the column labeled: “CREBBP Biochemistry IC50 (micromolar).”
MATERIALS: Reagents 1M Tris pH 8.0, Tween 20 10%, DTT, bovine serum gelatin (BSG) 2%, Peptide #233 (biotin-H3 11-25, K14R, K23R), Acetyl-CoA, CREBBP (1084-1701), formic acid (100%), and sodium bicarbonate were commercially available.
METHODS: The effect of compounds was measured in the following biochemical assay using CREBBP (1084-1701). Enzyme mix 30 μL per well was added using a Multi-drop to wells of prepared Compound Stock plate. The enzyme was incubated in the Compound Stock plate for 30 minutes at room temperature. Substrate mix, 20 μL per well, was added to Compound Stock plate using a Multi-drop. The plate was covered and incubate 30 minutes at room temperature. The reaction was stopped with addition of 5 μL per well of 5% formic acid using a Multi-drop. The plate was Incubated for 30 minutes at room temperature. The reaction mixture was neutralized with addition of 5 μL per well of 10% sodium bicarbonate using a Multi-drop. The plate was Incubated for 35 minutes at room temperature. The reaction mixture was Transferred 2.5 μL per well to a SAMDI biochip. The plate was Incubated for 60 minutes at room temperature. The samples were washed, dried, and matrix applied to SAMDI biochip. The SAMDI biochip was then read on the mass spectrometer.
In general, IC50 refers to the concentration that gives 50% inhibition. Regarding `CCn1ncc(CN(C)C(=O)c2cc(-c3ccccc3Cl)nc3cc(F)ccc23)c1C` [Compound 253], the IC50 came to 90 µM.

As for `CCn1ncc(CN(C)C(=O)c2nc(-c3cccc(Cl)c3)nc3ccc(Cl)c(C)c23)c1C` [Compound 256], the IC50 came out at 1.4 µM.

As for `CCn1ncc(CN(C)C(=O)c2cc(-c3cn(C)cn3)nc3cc(Cl)ccc23)c1C` [Compound 257], the IC50 came to 120 µM.

In the case of `CCn1ncc(CN(C)C(=O)c2nc(-c3ccccn3)nc3ccc(Cl)cc23)c1C` [Compound 262], the concentration for half-maximal inhibition (IC50) turned out to be 5.4 µM. `CCn1ncc(CN(C)C(=O)c2cc(-c3ccccc3Cl)nc3cc(C)ccc23)c1C` [Compound 263]: the IC50 is 87 µM. For `Cc1c(CN(C)C(=O)c2cc(-c3cccc(Cl)c3)nc3ccccc23)cnn1C` [Compound 265], the 50% inhibitory concentration (IC50) worked out at 195 µM. Same read-out and setting: then `CCn1ncc(CN(C)C(=O)c2cc(-c3ccccc3Cl)nc3c(Cl)cccc23)c1C` [Compound 269], with 26 µM.

Consider `CCn1ncc(CN(C)C(=O)c2cc(-c3ccccc3Cl)nc3cc(Cl)ccc23)c1C` [Compound 270], for which the IC50 was found to be 25 µM. On the same count and under the same terms, then `CN(Cc1cc2n(n1)CCC2)C(=O)c1cc(-c2cccc(Cl)c2)nc2ccc(Cl)cc12` [Compound 271], with 14 µM; and `CCn1ncc(CN(C)C(=O)c2cc(-c3ccccc3)nc3ccc(OC)cc23)c1C` [Compound 272], with 66 µM; and `CCn1ncc(CN(C)C(=O)c2cc(-c3cccc(Cl)c3)nc3ccc(OC)cc23)c1C` [Compound 273], with 19 µM.

In the case of `CCc1ncc(CN(C)C(=O)c2nc(-c3cccc(Cl)c3Cl)nc3ccc(Cl)cc23)n1C` [Compound 274], the IC50 is 0.0032 µM. Consider `CCn1ncc(CN(C)C(=O)c2nc(-c3cccc(Cl)c3)nc3ccc(C)cc23)c1C` [Compound 275], for which the concentration for half-maximal inhibition (IC50) turned out to be 0.014 µM. For the molecule `CCn1ncc(CN(C)C(=O)c2nc(-c3ncccn3)nc3ccc(Cl)cc23)c1C` [Compound 278], the concentration for half-maximal inhibition (IC50) came to 132 µM.

Turning to `CCn1ncc(CN(C)C(=O)c2nc(-c3cccc(C(F)(F)F)c3)nc3ccc(Cl)cc23)c1C` [Compound 280], the IC50 stood at 0.27 µM. Turning to `CCn1ncc(CN(C)C(=O)c2cc(-c3cnn(C)c3)nc3ccc(Cl)cc23)c1C` [Compound 289], the 50% inhibitory concentration (IC50) is 26 µM.

A further assay concerns H3K18Ac in HB-CLS-2 cells. The assay can be described thus: H3K18AC in-cell western (ICW) assay. Type of assay: cell-based. The settings on record: H3K18Ac in-cell western, HB-CLS-2 cells; read-out: CREBBP ICW IC50. From the text:
The following example describes methods and materials relating to an H3K18AC in-cell western assay. IC50 values (micromolar (μM)) are summarized in Table 1, Table 2, and Table 3 under the column labeled: “CREBBP ICW IC50 (micromolar).”
MATERIALS: HB-CLS-2 cell line, DMEM: Ham's F12 medium (1:1 mixture), penicillin-streptomycin, heat inactivated fetal bovine serum, D-PBS, Odyssey blocking buffer, 800CW goat anti-rabbit IgG (H+L) antibody, Licor Odyssey CLx Infrared Scanner, H3K18Ac rabbit monoclonal antibody. DRAQS fluorescent probe solution (5 mM), and 100% methanol were commercially available. HB-CLS-2 adherent cells were maintained in complete growth medium (DMEM: Ham's F12 supplemented with 10% v/v heat inactivated fetal bovine serum) and cultured at 37° C. under 5% CO2.
METHOD: Cell Treatment, ICW for detection of H3K18Ac and DNA content. HB-CLS-2 cells were seeded in assay medium (DMEM: Ham's F12 supplemented with 10% v/v heat inactivated fetal bovine serum and 1% Penicillin/Streptomycin) at a concentration of 80,000 cells per mL in a Poly-D-Lysine coated 384-well culture plates at 50 μL per well. Plates were incubated at room temperature for 30 minutes and then incubated at 37° C., 5% CO2 for additional 16-24 hours. Compounds and DMSO normalization were then added directly to the plates using a D300 Digital Dispenser and returned to the incubator at 37° C., 5% CO2 for 2 hrs. After the incubation, the contents of the plates were discarded into the appropriate waste stream and blotted on laboratory tissue to remove residual liquid. 90 μL per well of 100% ice cold methanol was added to the plates and incubated at room temperature for 15 minutes. Then methanol was then discarded into the appropriate waste stream and the plates again blotted on laboratory tissue to remove residual liquid. Plates were transferred to a Biotek 405 plate washer and washed 3 times with 100 μL per well of wash buffer (1X PBS containing 0.1% Triton X-100 (v/v)). Next, 50 μL per well of Odyssey blocking buffer with 0.1% Tween 20 (v/v) was added to each plate and incubated for 1 hour at room temperature. Blocking buffer was removed and 20 μL of primary antibody were added (α-H3K18Ac diluted 1:800 in Odyssey buffer with 0.1% Tween 20 (v/v)) and plates were incubated overnight (16 hours) at 4° C. Plates were washed 5 times with 100 μL per well of wash buffer. Next 20 μL per well of secondary antibody was added (1:400 800CW goat anti-rabbit IgG (H+L) antibody, 1:2000 DRAQ5 in Odyssey buffer with 0.1% Tween 20 (v/v)) and incubated for 1 hour at room temperature. The plates were washed 3 times with 100 μL per well wash buffer then 3 times with 100 μL per well of water. Plates were allowed to dry at room temperature then imaged on the Licor Odyssey CLx machine which measured integrated intensity at 700 nm and 800 nm wavelengths. Both 700 and 800 channels were scanned.
As to `CCn1ncc(CN(C)C(=O)c2nc(-c3cnn(CCN(C)C(=O)OC(C)(C)C)c3)nc3ccc(Cl)cc23)c1C` [Compound 197], the 50% inhibitory concentration (IC50) was 20 µM. Regarding `CCn1nc(C)c(CN(C)C(=O)c2nc(-c3ccccc3Cl)nc3ccc(Cl)cc23)c1C` [Compound 201], the IC50 is 20 µM.

Take `CCn1ncc(CN(C)C(=O)c2cc(-c3cn(C)c(C)n3)nc3cc(Cl)ccc23)c1C` [Compound 203]: the IC50 was determined as 20 µM. Take `CCn1ncc(CN(C)C(=O)c2nc(-c3cnn(CC4CCCN4)c3)nc3ccc(Cl)cc23)c1C` (stereo not shown) [Compound 204]: the IC50 is 20 µM. In the case of `CCn1ncc(CN(C)C(=O)c2cc(N3CCN(C(=O)OC(C)(C)C)CC3)nc3ccc(Cl)cc23)c1C` [Compound 205], the IC50 worked out at 20 µM.

On to `CCn1ncc(CN(C)C(=O)c2nc(C3CCCN3)nc3ccc(Cl)cc23)c1C` (stereo not shown) [Compound 207], for which the IC50 was determined as 20 µM. Consider `CCn1ncc(CN(C)C(=O)c2cc(N3CCN(C)CC3)nc3ccc(Cl)cc23)c1C` [Compound 214], for which the IC50 turned out to be 20 µM.

For `CCn1ncc(CN(C)C(=O)c2nc(-c3cnn(CCC(O)CNC)c3)nc3ccc(Cl)cc23)c1C` (stereo not shown) [Compound 223], the IC50 was found to be 20 µM. Take `CCn1ncc(CN(C)C(=O)c2nc(-c3ccc4ccn(C(=O)OC(C)(C)C)c4c3)nc3ccc(Cl)cc23)c1C` [Compound 234]: the 50% inhibitory concentration (IC50) was found to be 20 µM. For `CCn1ncc(CN(C)C(=O)c2cc(N3CCN(C(C)=O)CC3)nc3ccc(Cl)cc23)c1C` [Compound 244], the IC50 worked out at 20 µM.

As for `CCn1ncc(CN(C)C(=O)c2cc(N3CCNCC3)nc3ccc(Cl)cc23)c1C` [Compound 246], the IC50 was found to be 20 µM. On the same count and under the same terms, the same measure for `CCn1ncc(CN(C)C(=O)c2nc(-c3cnn(CCC(O)CN4CCCC4)c3)nc3ccc(Cl)cc23)c1C` (stereo not shown) [Compound 249]: 20 µM; for `CCn1ncc(CN(C)C(=O)c2nc(-c3ccc(OCCN(C)C(=O)OC(C)(C)C)c(F)c3)nc3ccc(Cl)cc23)c1C` [Compound 251]: 20 µM; for `CCn1ncc(CN(C)C(=O)c2nc(-c3ccc(OCCNC(=O)OC(C)(C)C)c(F)c3)nc3ccc(Cl)cc23)c1C` [Compound 252]: 20 µM. Turning to `CCn1ncc(CN(C)C(=O)c2cc(-c3ccc(N(C)CCN(C)C)c(C)n3)nc3ccc(Cl)cc23)c1C` [Compound 420], the half-maximal inhibitory concentration (IC50) turned out to be 0.74 µM. Turning to `CCn1ncc(CN(C)C(=O)c2nc(-c3cc(C(=O)NC4CC4)n(C)n3)nc3ccc(Cl)cc23)c1C` [Compound 421], the IC50 is 0.26 µM. Take `CCn1ncc(CN(C)C(=O)c2nc(-c3cc(N)c4nc[nH]c4c3)nc3ccc(Cl)cc23)c1C` [Compound 422]: the IC50 is 0.6 µM. As to `CCc1cc(CNC)cc(-c2nc(C(=O)N(C)Cc3cnn(CC)c3C)c3cc(Cl)ccc3n2)c1` [Compound 423], the IC50 worked out at 0.53 µM. With `CCn1ncc(CN(C)C(=O)c2cc(-c3cnc(NCCNC)cn3)nc3ccc(Cl)cc23)c1C` [Compound 424], the IC50 stood at 0.4 µM.

Turning to `CCc1nc(-c2cc(C(=O)N(C)Cc3cnn(CC)c3C)c3cc(Cl)ccc3n2)ccc1NCCNC` [Compound 425], the IC50 was 0.15 µM.

With `CCn1ncc(CN(C)C(=O)c2cc(-c3ccc(NCCNC)c(C)n3)nc3ccc(COC)cc23)c1C` [Compound 427], the concentration for half-maximal inhibition (IC50) was 0.19 µM.

For `CCn1ncc(CN(C)C(=O)c2nc(-c3ccc(OC4CCNCC4)c(OC)c3)nc3ccc(Cl)cc23)c1C` [Compound 428], the IC50 worked out at 1.4 µM. Turning to `CCn1ncc(CN(C)C(=O)c2cc(-c3ccc(NCCNC)c(C)n3)nc3ccc(C)cc23)c1C` [Compound 429], the IC50 was 0.16 µM.

With `CCn1ncc(CN(C)C(=O)c2cc(-c3ccc(OCCCNC)c(C)n3)nc3ccc(Cl)cc23)c1C` [Compound 430], the IC50 came to 0.69 µM. On to `CCn1ncc(CN(C)C(=O)c2cc(-c3ccc(OCCNC(C)=O)c(C)n3)nc3ccc(Cl)cc23)c1C` [Compound 431], for which the IC50 was found to be 0.84 µM.

The assay is the same for the next values; noted with them: H3K18Ac in-cell western; read-out: CREBBP ICW IC50.
Regarding `CCn1ncc(CN(C)C(=O)c2nc(N3CCCNCC3)nc3ccc(Cl)cc23)c1C` [Compound 187], the IC50 turned out to be 20 µM. Turning to `CCn1ncc(CN(C)C(=O)c2nc(-c3cnn(CCCN(C)C(=O)OC(C)(C)C)c3)nc3ccc(Cl)cc23)c1C` [Compound 188], the half-inhibitory concentration (IC50) came out at 20 µM.

Take `CCn1ncc(CN(C)C(=O)c2nc(-c3cnn(CCCNC(=O)OC(C)(C)C)c3)nc3ccc(Cl)cc23)c1C` [Compound 189]: the IC50 amounted to 20 µM. `CCn1ncc(CN(C)C(=O)c2nc(-c3cccc(Cl)c3)nc3cc(N4CCOCC4)ccc23)c1C` [Compound 191]: the concentration for half-maximal inhibition (IC50) stood at 20 µM. Turning to `CCn1ncc(CN(C)C(=O)c2nc(N3CCN(C(C)=O)CC3)nc3ccc(Cl)cc23)c1C` [Compound 195], the half-maximal inhibitory concentration (IC50) was found to be 20 µM.

The values above are taken from patent US20220144812A1, “QUINOLINE DERIVATIVES AND THEIR USE FOR THE TREATMENT OF CANCER” (Epizyme, Inc., priority 2019, published 2022).
